Reference: patent US20100261682A1, “Method and Means for the Treatment of Cachexia” (Bioneris AB, priority 2007, published 2010)

Tests used:
caspase 8 = assay: Caspase 8 activity in gastrocnemius muscle; format: in vivo, NMRI mice; conditions: 40 mg/kg; still significantly higher than in non-tumour-bearing animals
Procedure: (§1) Administration of alpha-trinositol. Mice (n=6) bearing the MAC16 tumour were treated with AT (40 mg/kg) s.c., 3 times per day, for 5 days, while a control group received PBS. Protein synthesis and degradation were determined by the incorporation and release of L-[2,6-^3H]phenylalanine, as described in Smith et al., Cancer Res., 2005; 65:277-83. On the fourth day of treatment half of the group administered 0.4 mmol/L L-[2,6-^3H]phenylalanine in PBS (100 μl) by i.p. administration.
Determination of Caspase activity. The activity of caspase 3 was determined by the release of 7-amino-4-methylcoumarin (AMC) from the specific substrate AcDEVD-AMC in the presence or absence of the caspase 3 inhibitor AcDEVD-CHO. […] The supernatant (50 μg protein) was incubated with the caspase 3 substrate for 1 h and the increase in fluorescence due to AMC was determined at an excilation wavelength of 370 nm and an emission wavelength of 430 nm. […] The increase in fluorescence due to the release of 7-amino-4-trifluoro-methylcoumarin (AFC) was measured with an excitation wavelength of 400 nm and an emission of 505 nm.

[1] = system: PIF (proteolysis inducing factor) induced protein degradation in murine myotubes; assay: PIF-induced protein degradation in murine myotubes; format: cell-based; conditions: AT 100 μM, 2 h prior to addition of PIF
Procedure: (§2) To investigate the mechanism by which AT protects lean body mass in cachexia, further experiments were carried out in vitro using murine myotubes as a surrogate model of skeletal muscle. Incubation with either PIF or angiotensin II (Ang II) induced protein degradation with a characteristic bell-shaped dose-response curve as previously reported (Smith et al., 2004, Br. J. Cancer, and Tisdale et al., 2006, Cell. Sig) with the maximal effect of PIF at 4.2 nM and Ang II at 0.5 μM (FIGS. 5 and 8).

PKR = assay: Western blot of gastrocnemius muscle: phospho PKR/total PKR; format: in vivo, NMRI mice; conditions: 40 mg/kg; tumour-bearing animals
Procedure: as §1
(§3) Western blot analysis Gastrocnemius muscle (10 mg) was homogenised in Phosphosafe™ Extraction Reagent (500 μl) and centrifuged at 15000 g for 15 min. Samples of the cytosolic proteins (5 μg) were loaded on either a 10% (mTOR, myosin, eIF4E and eIF4G) 12% (PKR, eIF2α and actin) or 15% (4E-BP1) sodium dodecylsulphate-polyacrylamide gel (SDS-PAGE) and electrophoresed at 180 V for approximately 1 h. The extent of phosphorylation of 4E-BP1, and the association of 4E-BP1 and eIF4G with eIF4E was determined by Western blotting when eIF4E was extracted from the muscle samples by m^7GTP-Sepharose 4B-affinity binding, as previously described Eley ey al., Biochem J., 2007; 407:113-20, by loading 20 μg of protein. […] Blots were scanned by a densitometer to quantify differences.

[2] = system: PIF-induced chymotrypsin-like enzyme activity (proteasome) in C2C12 myotubes; assay: PIF-induced chymotrypsin-like enzyme activity in C2C12 myotubes; format: cell-based, murine; conditions: AT 100 μM, 4.2 nM PIF
Text: Protein degradation induced by PIF is mediated through up-regulation of the ubiquitin-proteasome pathway (Tisdale et al., 2004, Br. J. Cancer). […] A hexanoyl ester of AT (lipid soluble AT) has been produced as a slow release form, after hydrolysis by esterase.

[3] = system: Ang II induced protein degradation in murine myotubes; assay: Ang II-induced protein degradation in murine myotubes; format: cell-based; conditions: AT 100 μM, 2 h prior to addition of Ang II
Procedure: as §2

4E-BP1 = assay: Western blot of gastrocnemius muscle: phosphorylation of 4E-BP1; format: in vivo, NMRI mice; conditions: 40 mg/kg; 60% reduction in untreated tumour-bearing animals
Procedure: as §1, §3

[4] = system: MAC16 tumour-bearing mice; assay: Body weight and gastrocnemius muscle weight in MAC16 tumour-bearing mice (Example 4); format: in vivo, NMRI mice; conditions: 40 mg/kg s.c., 3 times per day, 5 days
MAC16 tumour = assay: Tumour volume in MAC16 tumour-bearing mice treated with alpha-trinositol (Example 1); format: in vivo, NMRI mice; conditions: 10 mg/kg s.c. three times per day
Text: Animals. Pure strain male NMRI mice (average body weight 25 g) were transplanted with fragments of the MAC16 tumour subcutaneously into the flank by means of a trochar, selected from donor animals with established weight loss (Bibby M C et al., Characterization of transplantable adenocarcinoma in the mouse colon producing cachexia in the recipient animals. J Natl Cancer Inst 78 (1987) 539-546). Transplanted animals were given a rat and mouse breeding diet (Special Diet Services, Witham, UK) and water at lib. Weight loss was evident 10 to 12 days after tumour implantation. Just prior to the development of weight loss 24 animals were randomized into four groups (I-IV) of six animals each.
Administration of alpha-trinositol. A first experiment was started when the animals had lost about 5% of body weight. Aliquots (2.5 μl, Group I; 5 μl, Group II; 10 μl, Group III) of alpha-trinositol stock solution corresponding to doses of 10 mg/kg, 20 mg/kg, and 40 mg/kg for a 25 g animal were administered subcutaneously three times per day at 8.00, 12.00 and 16.00 hrs. The fourth group (Group IV; control) was given an intravenous injection of 10 μl of water. Body weight (FIG. 1), tumour volume (FIG. 2), and water and food intake were determined daily after the last injection.

myosin = assay: Western blot of gastrocnemius muscle: myosin; format: in vivo, NMRI mice; conditions: 40 mg/kg; treatment for 4 days; reduced by 90% in untreated tumour-bearing mice
Procedure: as §1, §3

Structure (SMILES): O=P(O)(O)O[C@@H]1[C@H](OP(=O)(O)O)[C@H](O)[C@@H](O)[C@H](O)[C@H]1OP(=O)(O)O [alpha-trinositol, 1-D-Myo-inositol 1,2,6-triphosphate]
- activity of caspase-8 in gastrocnemius muscle (caspase 8): significantly reduced
- effect on PIF-induced protein degradation [1]: completely attenuated protein degradation down to basal levels
- expression of phospho PKR (ratio phosphoPKR/total PKR) (PKR): significant decrease
- effect on PIF-induced chymotrypsin-like enzyme activity [2]: completely attenuated
- effect on Ang II-induced protein degradation [3]: completely attenuated protein degradation down to basal levels
- tumour-induced reduction in phosphorylation of 4E-BP1 (Thr37/46) (4E-BP1): completely attenuated
- gastrocnemius muscle weight compared to the control [4]: significantly higher
- weight loss compared to the control group [4]: significantly lower
- tumour inhibition (MAC16 tumour): did not produce any statistically significant effect
- myosin expression in gastrocnemius muscle (myosin): returned to values at the same level as in non-tumour animals
